Where “and” joins values, the source holds several entries; their conditions need not be identical. Equal entries are not always repeated. Where two headings read alike, the source gives them in different places. Each block holds one molecule with its values, some of them ahead of it.
What was measured:
[1] = molecular target: T1, adenosine deaminase (ADA) (Homo sapiens, UniProt P00813); assay: Deamination by adenosine deaminase, followed UV-spectrophotometrically; assay type: biochemical; conditions: compared with purine nucleoside 1; even at high enzyme concentrations
T1 sequence (P00813 1-363): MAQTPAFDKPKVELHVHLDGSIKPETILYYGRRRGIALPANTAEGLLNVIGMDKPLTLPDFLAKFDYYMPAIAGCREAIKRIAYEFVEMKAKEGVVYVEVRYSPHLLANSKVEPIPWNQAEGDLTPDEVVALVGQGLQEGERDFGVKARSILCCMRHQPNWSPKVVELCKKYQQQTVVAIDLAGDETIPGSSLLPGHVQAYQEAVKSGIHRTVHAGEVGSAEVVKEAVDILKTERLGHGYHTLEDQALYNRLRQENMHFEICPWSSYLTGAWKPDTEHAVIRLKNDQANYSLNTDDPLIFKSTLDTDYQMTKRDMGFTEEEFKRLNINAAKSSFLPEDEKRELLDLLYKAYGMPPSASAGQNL
Excerpt: The reaction was followed UV-spectrophoto-metrically (FIG. 1a).
The time-dependent spectra show two isosbestic points (λ=234 nm and 267 nm) indicating the conversion of the starting material into only one reaction product. The deamination of 2a occurs much slower than that of the purine nucleoside 1.

[2] = Half-life of the N-glycosylic bond in HCl, followed UV-spectrophotometrically and by HPLC; assay type: physicochemical; conditions: 25°; for half-life: read-out: Half-life τ
Procedure: Next, the half-lives of the N-glycosylic bonds of compounds 2a,b in acidic medium were measured and compared with that of compound 1. […]

[3] = tested on: complementary oligodeoxyribonucleotide strand (antiparallel duplex); assay: Tm values and thermodynamic data of antiparallel DNA-DNA duplexes (UV melting curves, Meltwin 3.0); assay type: binding
[4] = Deprotection (alkaline hydrolysis) of base-protected nucleosides in aqueous ammonia, HPLC monitoring; conditions: for time of complete deprotection: conc. ammonia, 40°
[5] = buffer
[6] = tested on: complementary oligodeoxyribonucleotide strand (antiparallel duplex); conditions: data published so far; n^2Ad instead of dA; cited from earlier work
[7] = 25% aq. NH3, 40°, HPLC-monitoring

deamination by adenosine deaminase [1]: not deaminated | Half-life τ ([2]; 0.5 N HCl, Stable = within 4 h): Stable^b) | half-life ([2]; 2 N HCl): 87 min
SMILES: Nc1nc(N)c2c(Br)nn([C@H]3C[C@H](O)[C@@H](CO)O3)c2n1 [2b, 3-Bromo-1-[2-deoxy-β-D-erythro-pentofuranosyl]-1H-pyrazolo[3,4-d]-pyrimidin-4,6-diamine]
Tm increase (stabilization) per modified residue ([3]; text Example 2, standard duplex 102•103): 4.5 ° and 4-5 ° | Tm-value of duplex 102•103 with six residues replacing dA ([3]; text b259): 75 °

Half-life τ ([2]; Table 8, 0.5 N HCl, stable = within 3 h): stable^b) | half-life ([2]; Table 8, 2 N HCl): 61 min
SMILES: Nc1nc(N)c2c(I)nn([C@H]3C[C@H](O)[C@@H](CO)O3)c2n1 [2c, 1-(2-Deoxy-β-D-erythro-pentofuranosyl)-3-iodo-1H-pyrazolo[3,4-d]-pyrimidin-4,6-diamine]

removal of the first pac-group [4, 7]: ≤ 5 min | removal of the second pac-group [4, 7]: 20 min | complete deprotection ([4]; 25% aq. NH3 at r.t.): less than one hour
SMILES: O=C(COc1ccccc1)Nc1nc(NC(=O)COc2ccccc2)c2cnn([C@H]3C[C@H](O)[C@@H](CO)O3)c2n1 [5a, N^4,N^6-Bis(phenoxyacetyl)-1-[2-deoxy-β-D-erythro-pentofuranosyl]-1H-pyrazolo[3,4-d]-pyrimidin-4,6-diamine]

complete removal of the two benzoyl groups ([4]; 25% aq. NH3, 40°, HPLC monitoring): 8 to 9 h
SMILES: O=C(Nc1nc(NC(=O)c2ccccc2)c2cnn([C@H]3C[C@H](O)[C@@H](CO)O3)c2n1)c1ccccc1 [5b, N^4,N^6-Bis(benzoyl)-1-[2-deoxy-β-D-erythro-pentofuranosyl]-1H-pyrazolo[3,4-d]-pyrimidin-4,6-diamine]

time of complete deprotection ([4]; HPLC-monitoring at 260 nm): 440 min
SMILES: CCCCN(C=Nc1nc(N=CN(CCCC)CCCC)c2cnn([C@H]3C[C@H](O)[C@@H](CO)O3)c2n1)CCCC [8a, N^4,N^6-Bis((di-n-butylamino)methylene)-1-[2-deoxy-β-D-erythro-pentofuranosyl]-1H-pyrazolo[3,4-d]-pyrimidin-4,6-diamine]

time of complete deprotection ([4]; HPLC-monitoring at 260 nm): 450 min
SMILES: CCCCN(C=Nc1nc(N=CN(CCCC)CCCC)c2c(Br)nn([C@H]3C[C@H](O)[C@@H](CO)O3)c2n1)CCCC [8b, N^4,N^6-Bis((di-n-butylamino)methylene)-3-bromo-1-[2-deoxy-β-D-erythro-pentofuranosyl]-1H-pyrazolo[3,4-d]-pyrimidin-4,6-diamine]

half-life of alkaline hydrolysis [5]: 4.5 min
SMILES: CC(C)C(=O)Nc1nc(NC(=O)C(C)C)c2c(Br)nn([C@H]3C[C@H](O)[C@@H](CO)O3)c2n1 [13a, 3-Bromo-1-(2-deoxy-β-D-erythro-pentofuranosyl)-4,6-[(2-methylpropanoyl)amino]-1H-pyrazolo[3,4-d]pyrimidine]

time for complete deprotection ([4]; 25% aq. NH3, 40° C., HPLC-monitoring at 260 nm): 450 min
SMILES: O=C(Nc1nc(NC(=O)c2ccccc2)c2c(I)nn([C@H]3C[C@H](O)[C@@H](CO)O3)c2n1)c1ccccc1 [13b, 1-[2-Deoxy-β-D-erythro-pentofuranosyl]-4,6-dibenzamido-3-iodo-1H-pyrazolo[3,4-d]-pyrimidine]

half-life ([2]; 0.5 N HCl, Stable = within 4 h): 6 min
SMILES: Nc1nc(N)c2ncn([C@H]3C[C@H](O)[C@@H](CO)O3)c2n1 [compound 1, 2-amino-2′-deoxyadenosine, reference compound]
Tm-increase of DNA duplex [6]: 1-2 °C

half-life of alkaline hydrolysis ([4]; 25% aq. NH3 at 40°): 20.5 min
SMILES: CC(C)C(=O)Nc1nc(N)c2c(Br)nn([C@H]3C[C@H](O)[C@@H](CO)O3)c2n1 [compound 14, 4-Amino-3-bromo-1-(2-deoxy-β-D-erythro-pentofuranosyl)-6-[(2-methylpropanoyl)amino]-1H-pyrazolo[3,4-d]pyrimidine]

Source: US7238795B2, “Nucleic acid binding compounds containing pyrazolo[3,4-d]pyrimidine analogues of purin-2,6-diamine and their uses” (Roche Molecular Systems, Inc., priority 2000, dated 2007)
